Patent publication US9422302B2 (priority 2013, dated 2016)

Tests used:
δ receptor = δ receptor (Rattus norvegicus, UniProt P33533); conditions: cited from earlier work
Male, Swiss-Webster mice [1] = assay: Tail-flick antinociceptive testing (acute, antagonist and tolerance paradigms); assay type: in vivo; conditions: for Antinociceptive tolerance development vs. Day 1, tail-flick: 15 mg/kg s.c. twice daily for five days, latencies 30 min after administration; for ED50: Mus musculus, sc; for Effect of antagonist pretreatment on UMB 425 antinociception, tail-flick: naloxone 1 mg/kg i.p. −30 min or nor-BNI 30 mg/kg i.p. −24 h before UMB 425 15 mg/kg s.c., 30 min
Male, Swiss-Webster mice [2] = assay: Hot plate antinociceptive testing (acute, antagonist and tolerance paradigms); assay type: in vivo; conditions: for Antinociceptive tolerance development vs. Day 1, hot plate: 15 mg/kg s.c. twice daily for five days, latencies 30 min after administration; for ED50: Mus musculus, sc; for Effect of antagonist pretreatment on UMB 425 antinociception, hot plate: naloxone 1 mg/kg i.p. −30 min or nor-BNI 30 mg/kg i.p. −24 h before UMB 425 15 mg/kg s.c., 30 min
human δ opioid receptor [3] = molecular target: T1, human δ opioid receptor (Homo sapiens, UniProt P41143); conditions: ref (32); cited from earlier work
human δ opioid receptor [4] = molecular target: T1, human δ opioid receptor; assay: Opioid receptor binding, [3H]DPDPE competition in hDOR-CHO membranes; set-up: expressed in transfected cells; host or cells: CHO cells (membranes)
human κ opioid receptor [5] = molecular target: T2, human κ opioid receptor (Homo sapiens, UniProt P41145); assay: [35S]GTPγS functional assay, hKOR-CHO membranes; assay type: biochemical; conditions: CHO cell membranes, n/e=no effect
T2 construct: expressed in transfected cells; host or cells: CHO cells (membranes)

human δ opioid receptor [6] = molecular target: T1, human δ opioid receptor; assay: [35S]GTPγS functional assay, hDOR-CHO membranes (agonism; antagonism of DPDPE, Schild plot); assay type: biochemical; set-up: expressed in transfected cells; host or cells: CHO cells (membranes)
human μ opioid receptor [7] = molecular target: T3, human μ opioid receptor (Homo sapiens, UniProt P35372); assay: biochemical
T3 construct: expressed in transfected cells; host or cells: CHO cells (membranes)

human μ opioid receptor [8] = molecular target: T3, human μ opioid receptor; assay: biochemical; assay type: binding
human κ opioid receptor [9] = molecular target: T2, human κ opioid receptor; assay: biochemical; assay type: binding
[10] = 0.5 h, read-out: ED50 Tail-Flick, acute treatment paradigm
[11] = read-out: ED50 Tail-Flick, Tolerance
[12] = 0.5 h, read-out: ED50 Hot Plate, acute treatment paradigm
[13] = read-out: ED50 Hot Plate, Tolerance
[14] = acute vs. tolerance treatment paradigms

Sequence of δ receptor (P33533 whole entry): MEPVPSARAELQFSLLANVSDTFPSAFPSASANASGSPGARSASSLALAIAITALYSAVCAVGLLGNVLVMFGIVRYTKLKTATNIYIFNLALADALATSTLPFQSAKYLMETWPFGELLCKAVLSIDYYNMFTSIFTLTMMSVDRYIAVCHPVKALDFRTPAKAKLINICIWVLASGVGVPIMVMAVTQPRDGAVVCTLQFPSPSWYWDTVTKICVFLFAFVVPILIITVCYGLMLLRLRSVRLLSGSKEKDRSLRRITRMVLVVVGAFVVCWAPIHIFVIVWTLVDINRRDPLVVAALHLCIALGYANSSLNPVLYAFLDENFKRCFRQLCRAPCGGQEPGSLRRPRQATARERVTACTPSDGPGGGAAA
T3 sequence (P35372 whole entry): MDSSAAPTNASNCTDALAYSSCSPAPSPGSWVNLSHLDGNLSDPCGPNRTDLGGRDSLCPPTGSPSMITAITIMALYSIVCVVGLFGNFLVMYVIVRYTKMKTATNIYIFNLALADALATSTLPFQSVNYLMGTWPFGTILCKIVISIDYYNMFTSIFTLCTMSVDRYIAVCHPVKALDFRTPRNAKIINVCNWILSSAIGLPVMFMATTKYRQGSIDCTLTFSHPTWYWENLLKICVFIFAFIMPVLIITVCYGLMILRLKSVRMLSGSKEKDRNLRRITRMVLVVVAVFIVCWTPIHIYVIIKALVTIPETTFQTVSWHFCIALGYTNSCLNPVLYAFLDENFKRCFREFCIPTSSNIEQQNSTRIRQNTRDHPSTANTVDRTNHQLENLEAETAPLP
T1 sequence (P41143 whole entry): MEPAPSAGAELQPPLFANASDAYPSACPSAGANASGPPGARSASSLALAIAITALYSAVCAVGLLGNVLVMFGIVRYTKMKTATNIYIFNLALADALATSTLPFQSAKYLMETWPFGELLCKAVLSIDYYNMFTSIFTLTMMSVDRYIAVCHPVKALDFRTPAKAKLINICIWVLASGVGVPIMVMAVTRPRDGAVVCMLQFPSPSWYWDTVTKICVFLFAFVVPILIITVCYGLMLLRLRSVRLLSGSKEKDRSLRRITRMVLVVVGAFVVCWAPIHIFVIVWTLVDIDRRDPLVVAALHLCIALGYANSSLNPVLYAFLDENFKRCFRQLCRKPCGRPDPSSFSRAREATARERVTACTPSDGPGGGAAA
T2 sequence (P41145 whole entry): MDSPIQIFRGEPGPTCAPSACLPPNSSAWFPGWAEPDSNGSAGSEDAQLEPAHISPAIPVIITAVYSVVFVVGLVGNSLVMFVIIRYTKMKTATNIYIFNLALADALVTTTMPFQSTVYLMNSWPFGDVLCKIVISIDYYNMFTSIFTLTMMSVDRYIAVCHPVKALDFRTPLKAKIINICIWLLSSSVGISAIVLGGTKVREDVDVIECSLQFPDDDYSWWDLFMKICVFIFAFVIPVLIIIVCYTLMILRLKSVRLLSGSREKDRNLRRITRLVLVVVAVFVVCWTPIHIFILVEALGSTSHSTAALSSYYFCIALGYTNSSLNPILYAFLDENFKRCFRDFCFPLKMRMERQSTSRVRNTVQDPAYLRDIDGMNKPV

O=C1/C(=C/c2ccccc2)C[C@@]2(O)[C@H]3Cc4ccc(O)c5c4[C@@]2(CCN3CC2CC2)[C@H]1O5 [(E)-BNTX, (E)-benzylidenenaltrexone]
Relative % Emax Experimental (δ receptor): 0.00

CN1CC[C@]23c4c5ccc(O)c4O[C@H]2[C@@H](O)C=C[C@H]3[C@H]1C5 [Morphine, reference compound]
Antinociceptive tolerance development vs. Day 1, tail-flick (Male, Swiss-Webster mice [1]): significantly decreased antinociceptive activity on Day 4 and 5
ED50 (Male, Swiss-Webster mice [1]; [10]): 6.85 mg/kg
ED50 (Male, Swiss-Webster mice [1]; [11]): 44.1 mg/kg
Antinociceptive tolerance development vs. Day 1, hot plate (Male, Swiss-Webster mice [2]): significantly decreased antinociceptive activity on Day 4 and 5
ED50 (Male, Swiss-Webster mice [2]; [12]): 2.73 mg/kg
ED50 (Male, Swiss-Webster mice [2]; [13]): 21.3 mg/kg

Oc1ccc2c3c1O[C@H]1c4[nH]c5ccccc5c4C[C@@]4(O)[C@@H](C2)N(CC2CC2)CC[C@]314 [Naltrindole]
Relative % Emax Experimental (δ receptor): 0.00
pA2 δ (literature) (human δ opioid receptor [3]): 10.92

CN1CC[C@]23c4c5ccc(O)c4O[C@H]2c2[nH]c4ccccc4c2C[C@@]3(O)[C@H]1C5 [Oxymorphindole]
Relative % Emax Experimental (δ receptor): 0.12

CN1CC[C@]23c4c5ccc(O)c4O[C@H]2C(=O)C2(Cc4ccccc4C2)C[C@@]3(O)[C@H]1C5 [SIOM, 7-spiroindanyloxymorphone]
Relative % Emax Experimental (δ receptor): 0.18

CN1CCC23c4c5ccc(O)c4OC2(CO)C(=O)CCC3(O)C1C5 (stereo not drawn) [UMB 425, 4a,9-dihydroxy-7a-(hydroxymethyl)-3-methyl-2,3,4,4a,5,6-hexahydro-1H-4,12-methanobenzofuro[3,2-e]isoquinolin-7(7aH)-one]
Ki (human δ opioid receptor [4]): 0.208 ± 0.018 µM
δ/μ binding affinity ratio (human δ opioid receptor [4]; ratio of Ki values): 65
EC50 ± S.E.M. κ (agonist activity) (human κ opioid receptor [5]): no significant agonist activity and n/e
Antinociceptive tolerance development vs. Day 1, tail-flick (Male, Swiss-Webster mice [1]): n.s.
Antinociceptive activity compared with morphine in tolerance paradigm, tail-flick (Male, Swiss-Webster mice [1]; Day 5, 15 mg/kg s.c. twice daily): statistically greater antinociceptive activity than morphine
ED50 (Male, Swiss-Webster mice [1]; [10]): 8.83 mg/kg
ED50 (Male, Swiss-Webster mice [1]; [11]): 11.6 mg/kg
Shift in ED50, Tail-Flick (Male, Swiss-Webster mice [1]; [14]): 1.3 fold
Reduction in ED50 shift compared to morphine, tail-flick (Male, Swiss-Webster mice [1]; tolerance paradigm): 4.9 fold
Antinociceptive tolerance development vs. Day 1, hot plate (Male, Swiss-Webster mice [2]): significantly decreased antinociceptive activity on Day 4 and 5
Antinociceptive activity compared with morphine in tolerance paradigm, hot plate (Male, Swiss-Webster mice [2]; Day 4 and 5, 15 mg/kg s.c. twice daily): statistically greater antinociceptive activity than morphine
ED50 (Male, Swiss-Webster mice [2]; [12]): 4.3 mg/kg
ED50 (Male, Swiss-Webster mice [2]; [13]): 13 mg/kg
Shift in ED50, Hot Plate (Male, Swiss-Webster mice [2]; [14]): 3.0 fold
Reduction in ED50 shift compared to morphine, hot plate (Male, Swiss-Webster mice [2]; tolerance paradigm): 2.6 fold
Kb (human δ opioid receptor [6]): 0.759 µM
pA2 δ (human δ opioid receptor [6]; Schild plot, DPDPE dose-response curves with 200 nM, 600 nM, 2 μM UMB 425): 6.12
EC50 ± S.E.M. δ (agonist activity) (human δ opioid receptor [6]; [35S]GTPγS, CHO cell membranes, n/e=no effect): no significant agonist activity and n/e
% Emax μ (human μ opioid receptor [7]): 73±7.3%
EC50 (human μ opioid receptor [7]): 0.035 ± 0.0037 µM
Emax (human μ opioid receptor [7]; read-out: % Emax ± S.E.M. μ): 73 ± 7.3%
Ki (human μ opioid receptor [8]): 0.0032 ± 0.00014 µM
Ki (human κ opioid receptor [9]): 0.212 ± 0.021 µM
κ/μ binding affinity ratio (human κ opioid receptor [9]): 66

C=CCN1CC[C@]23c4c5ccc(O)c4O[C@H]2C(=O)CC[C@@]3(O)[C@H]1C5 [naloxone, reference compound]
Effect of antagonist pretreatment on UMB 425 antinociception, tail-flick (Male, Swiss-Webster mice [1]): significantly attenuated UMB 425-mediated antinociception
Effect of antagonist pretreatment on UMB 425 antinociception, hot plate (Male, Swiss-Webster mice [2]): significantly attenuated UMB 425-mediated antinociception

Oc1ccc2c3c1O[C@H]1c4[nH]c5c(c4C[C@@]4(O)[C@@H](C2)N(CC2CC2)CC[C@]314)C[C@@]1(O)[C@H]2Cc3ccc(O)c4c3[C@@]1(CCN2CC1CC1)[C@H]5O4 [nor-BNI, norbinaltorphimine, reference compound]
Effect of antagonist pretreatment on UMB 425 antinociception, tail-flick (Male, Swiss-Webster mice [1]): failed to significantly attenuate UMB 425-mediated antinociception
Effect of antagonist pretreatment on UMB 425 antinociception, hot plate (Male, Swiss-Webster mice [2]): failed to significantly attenuate UMB 425-mediated antinociception
